Experimental data published in ChEMBL document CHEMBL5143514, “Investigation of chalcogen bioisosteric replacement in a series of heterocyclic inhibitors of tryptophan 2,3-dioxygenase” (Eur J Med Chem, 2022).
Active and inactive are the calls of the source. The calls are words filed in the database; no cut-off is given here.

Experiments:
[1] = Induction of apoptosis in mouse P815B cells assessed as apoptotic cells at 10 uM measured after 6 hrs by Annexin V-FITC/PI staining based flow cytometry method relative to control; format: functional
[2] = Lipophilicity, logKw of compound in methanol and water buffer at pH 2.3 by HPLC-UV analysis; format: physicochemical
[3] = Induction of apoptosis in mouse P815B cells assessed as viable cells at 10 uM measured after 24 hrs by Annexin V-FITC/PI staining based flow cytometry method relative to control; format: functional; conditions: read-out: Activity
[4] = Induction of apoptosis in mouse P815B cells assessed as necrotic cells at 10 uM measured after 24 hrs by Annexin V-FITC/PI staining based flow cytometry method relative to control; format: functional
P815B [5] = test: Induction of ROS generation in mouse P815B cells assessed as increase in H2O2 concentration at high concentration measured upto 6 hrs by bioluminescent ROS-Glo H2O2 assay; format: functional, cell-based
[6] = Cytotoxicity against mouse P815B cells assessed as reduction in cell viability measured after 24 hrs by MTS assay; format: functional; conditions: read-out: LD50 (the source's name)
[7] = Induction of apoptosis in mouse P815B cells assessed as necrotic cells at 10 uM measured after 6 hrs by Annexin V-FITC/PI staining based flow cytometry method relative to control; format: functional
[8] = molecular target: T1, Indoleamine 2,3-dioxygenase 1 (Homo sapiens, UniProt P14902); test: Inhibition of human IDO1 expressed in mouse P815B cells using L-tryptophan as substrate incubated for 24 hrs by UPLC analysis; format: cell-based
[9] = Induction of apoptosis in mouse P815B cells assessed as viable cells at 5 uM measured after 24 hrs by Annexin V-FITC/PI staining based flow cytometry method relative to control; format: functional; conditions: read-out: Activity
A 172 [10] = test: Cytotoxicity against human A 172 cells assessed as reduction in cell viability measured after 24 hrs by MTS assay; format: functional; conditions: read-out: LD50 (the source's name)
[11] = molecular target: T2, Tryptophan 2,3-dioxygenase (Homo sapiens, UniProt P48775); test: Inhibition of human TDO2 expressed in mouse P815B cells using L-tryptophan as substrate incubated for 7 hrs by UPLC analysis; format: cell-based
[12] = Induction of cell cycle arrest in mouse P815B cells assessed as accumulation of cells at G2 phase at 5 uM measured after 24 hrs by PI staining based flow cytometry method (reference value: 14.6%); format: functional
[13] = Induction of apoptosis in mouse P815B cells assessed as early apoptotic cells at 1 uM measured after 24 hrs by Annexin V-FITC/PI staining based flow cytometry method relative to control; format: functional
[14] = Cytotoxicity against mouse P815B cells assessed as reduction in cell viability measured after 6 hrs by MTS assay; format: functional; conditions: read-out: LD50 (the source's name)
[15] = Induction of apoptosis in mouse P815B cells assessed as late apoptotic cells at 10 uM measured after 24 hrs by Annexin V-FITC/PI staining based flow cytometry method relative to control; format: functional
[16] = Induction of apoptosis in mouse P815B cells assessed as late apoptotic cells at 1 uM measured after 24 hrs by Annexin V-FITC/PI staining based flow cytometry method relative to control; format: functional
[17] = molecular target: T1, Indoleamine 2,3-dioxygenase 1; test: Inhibition of human IDO1 in potassium phosphate buffer at pH 6.5 using L-tryptophan as substrate incubated for 8 mins
[18] = Metabolic stability in liver microsomes assessed as half life at 10 uM measured upto 24 hrs in the presence of NADPH by UPLC analysis; format: ADME, Microsome
[19] = Induction of apoptosis in mouse P815B cells assessed as late apoptotic cells at 5 uM measured after 24 hrs by Annexin V-FITC/PI staining based flow cytometry method relative to control; format: functional
[20] = Induction of apoptosis in mouse P815B cells assessed as necrotic cells at 1 uM measured after 24 hrs by Annexin V-FITC/PI staining based flow cytometry method relative to control; format: functional
[21] = Cytotoxicity against HEK293 cells assessed as reduction in cell viability measured after 6 hrs by MTS assay; format: toxicity, cell-based; conditions: human, read-out: LD50
[22] = Induction of apoptosis in mouse P815B cells assessed as early apoptotic cells at 10 uM measured after 24 hrs by Annexin V-FITC/PI staining based flow cytometry method relative to control; format: functional
[23] = Cytotoxicity against HEK293 cells assessed as reduction in cell viability measured after 24 hrs by MTS assay; format: toxicity, cell-based; conditions: human, read-out: LD50
[24] = molecular target: T2, Tryptophan 2,3-dioxygenase; test: Inhibition of human TDO2 expressed in Escherichia coli BL21-DE3 rosetta cells at pH 6.5 potassium phosphate buffer using L-tryptophan as substrate measured after 15 mins
[25] = Induction of cell cycle arrest in mouse P815B cells assessed as accumulation of cells at G1 phase at 5 uM measured after 24 hrs by PI staining based flow cytometry method (reference value: 42.8%); format: functional
[26] = Induction of apoptosis in mouse P815B cells assessed as necrotic cells at 5 uM measured after 24 hrs by Annexin V-FITC/PI staining based flow cytometry method relative to control; format: functional
A 172 [27] = test: Cytotoxicity against human A 172 cells assessed as reduction in cell viability measured after 6 hrs by MTS assay; format: functional; conditions: read-out: LD50 (the source's name)
[28] = Induction of apoptosis in mouse P815B cells assessed as viable cells at 1 uM measured after 24 hrs by Annexin V-FITC/PI staining based flow cytometry method relative to control; format: functional; conditions: read-out: Activity
[29] = Induction of cell cycle arrest in mouse P815B cells assessed as accumulation of cells at S phase at 5 uM measured after 24 hrs by PI staining based flow cytometry method (reference value: 45.0%); format: functional
[30] = Induction of apoptosis in mouse P815B cells assessed as early apoptotic cells at 5 uM measured after 24 hrs by Annexin V-FITC/PI staining based flow cytometry method relative to control; format: functional
P815B [31] = test: Cytotoxicity against mouse P815B cells assessed as reduction in cell viability at 30 uM measured after 24 hrs by MTS assay; format: functional, cell-based

T2 sequence (P48775 whole entry): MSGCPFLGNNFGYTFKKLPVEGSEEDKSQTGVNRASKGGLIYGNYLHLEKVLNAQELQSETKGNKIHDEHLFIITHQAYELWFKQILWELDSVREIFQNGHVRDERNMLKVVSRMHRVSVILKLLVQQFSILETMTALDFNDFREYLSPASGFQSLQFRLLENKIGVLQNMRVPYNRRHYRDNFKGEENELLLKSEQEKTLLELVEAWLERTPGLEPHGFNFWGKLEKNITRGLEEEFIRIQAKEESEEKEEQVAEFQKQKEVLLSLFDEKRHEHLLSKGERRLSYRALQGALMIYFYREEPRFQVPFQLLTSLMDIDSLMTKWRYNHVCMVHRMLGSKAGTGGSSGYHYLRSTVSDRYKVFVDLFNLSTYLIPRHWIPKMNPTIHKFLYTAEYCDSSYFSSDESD
T1 sequence (P14902 whole entry): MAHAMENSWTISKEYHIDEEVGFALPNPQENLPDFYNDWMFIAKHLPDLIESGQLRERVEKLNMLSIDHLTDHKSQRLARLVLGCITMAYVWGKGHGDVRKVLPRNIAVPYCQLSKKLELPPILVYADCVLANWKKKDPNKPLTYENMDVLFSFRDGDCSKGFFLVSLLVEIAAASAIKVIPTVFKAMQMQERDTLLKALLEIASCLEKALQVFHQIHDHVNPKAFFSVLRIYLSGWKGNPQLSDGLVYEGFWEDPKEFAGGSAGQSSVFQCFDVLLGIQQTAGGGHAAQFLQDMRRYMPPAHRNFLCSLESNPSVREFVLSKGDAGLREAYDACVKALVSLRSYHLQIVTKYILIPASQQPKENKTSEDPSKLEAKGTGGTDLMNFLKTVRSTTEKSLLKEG

| Compound | logKw [2] | Activity (P815B [5]) | CC50 [6] | IC50 [8] | CC50 (A 172 [10]) | IC50 [11] | CC50 [14] | IC50 [17] | half-life at 10 µM [18] | CC50 at 6 h [21] | CC50 at 24 h [23] | IC50 [24] | CC50 (A 172 [27]) | Activity (P815B [31]) | other results |
| --- | --- | --- | --- | --- | --- | --- | --- | --- | --- | --- | --- | --- | --- | --- | --- |
| c1ccc2c(-c3ccc4n[se]nc4c3)c[nH]c2c1 | 3.5 | Active | 3 µM | > 100 µM | 30 µM | 0.094 µM | 30 µM | > 100 µM | 70.2 min | 30 µM | 10 µM | 2.5 µM | 30 µM |  | Activity [1]: 30.4%; viability at 10 µM [3]: 52.7%; Activity [4]: 0.55%; Activity [7]: 27.6%; viability at 5 µM [9]: 79.2%; Activity [12]: 11.6%; Activity [13]: 1.15%; Activity [15]: 44.1%; Activity [16]: 16.6%; Activity [19]: 14.2%; Activity [20]: 1.24%; Activity [22]: 2.64%; Activity [25]: 47.3%; Activity [26]: 1.46%; viability at 1 µM [28]: 81%; Activity [29]: 41.3%; Activity [30]: 5.19% |
| c1ccc2c(-c3cnc4nsnc4c3)c[nH]c2c1 | 3.3 |  | 30 µM | > 100 µM | > 80 µM | 0.082 µM | > 80 µM | > 100 µM | 22 min | > 80 µM | > 80 µM | 4.7 µM | > 80 µM | Toxic |  |
| c1ccc2c(-c3ccc4nonc4c3)c[nH]c2c1 | 4.1 |  | 10 µM | > 100 µM | 30 µM | 0.051 µM | 10 µM | > 100 µM | 24.6 min | > 80 µM | > 80 µM | 3.4 µM | 30 µM |  |  |
| c1ccc2c(-c3cnc4n[se]nc4c3)c[nH]c2c1 | 2.9 | Active | 30 µM | > 100 µM | > 80 µM | 0.171 µM | > 80 µM | > 100 µM | 28.3 min | > 80 µM | > 80 µM | 4.5 µM | > 80 µM | Toxic |  |
| c1ccc2c(-c3ccc4nsnc4c3)c[nH]c2c1 | 4 |  | 10 µM | > 100 µM | 30 µM | 0.129 µM | 30 µM | > 100 µM | 35.6 min | > 80 µM | > 80 µM | 3 µM | 30 µM |  |  |
